From patent publication US5196415A, “5-aminocarbonyl-5H-dibenzo[a.d]cyclohepten-5,10-imines for treatment of epilepsy and cocaine addiction” (The United States of America as represented by the …, priority 1992, dated 1993)

Tests used:
[1] = system: phencyclidine binding sites in the central nervous system; details: in words; cited from earlier work
[2] = in words; cited from earlier work
[3] = in words; cited from earlier work; remark: listed apart in the source
[4] = compared to 17% who received a placebo; cited from earlier work
[5] = drug induced motor toxicity, inverted screen test; details: mouse, in vivo, ip, mice
Protocol: (§1) Compound 1 was administered intraperotoneally to male CF-1 type mice (20-25 g) with a saline solution carrier. The dose effect behavior was determined by the administration of six different doses of each compound, treating eight mice at each dose. After a period of fifteen minutes, the mice were subjected to corneal application of electroshock (30 mA at 50 Hz for 0.1 s). The ED50 and the 95% confidence intervals of drug which eliminated the tonic-extensor component of the convulsion in 50% of the animals was calculated by the method of Litchfield and Wilcoxon (J. Pharmacol. Exp. Ther. 1949, 96, 99). Drug induced motor toxicity was examined using the inverted screen test which measures the ability of mice to hold onto a screen which has been turned vertical. Control animals will be able to hold on.

[6] = protection against maximal electroshock induced seizures (corneal electroshock, tonic-extensor component); format: in vivo, male CF-1 type mice; details: Mus musculus, ip, 0.25 h; mice, intraperitoneal, saline carrier, 15 min before electroshock (30 mA, 50 Hz, 0.1 s)
Protocol: as §1

## CC12NC(Cc3ccccc31)c1ccccc12 (single isomer, unassigned) [MK-801]
[1]
  affinity for phencyclidine binding sites: high affinity
[2]
  sedative side effects: essentially free of the usual sedative side effects

## NC(=O)N1c2ccccc2C=Cc2ccccc21 [Carbamazepine, 5-carbamyl-5H-dibenzo[b,f]azepine]
[3]
  acute and motor toxicity: low acute and motor toxicity
  anticonvulsant activity: good activity
  bioavailability: low bioavailability
  bone marrow suppression: implicated in bone marrow suppression
  toxic overdose reported: only one case of toxic overdose has been reported
[4]
  addicts taking the medication able to abstain from cocaine for a prescribed period: 59%

## NC(=O)C12NC(Cc3ccccc31)c1ccccc12 (centres unmarked) [Compound 1, 5-Aminocarbonyl-10,11-dihydro-5H-dibenzo[a,d]cyclohepten-5,10-imine]
[5]; intraperitoneal, inverted screen test
  TD50: 50 to 55 mg/kg
[5]; motor toxicity TD50 versus maximal electroshock ED50, read-out: therapeutic index (TI)
  selectivity ratio: 5.6 to 6.2
[6]
  ED50: 8.9 mg/kg
